From patent US8680288B2, “Pyridin-2yl sulfanyl acid esters and process for the preparation thereof” (Council of Scientific & Industrial Research, priority 2010, dated 2014)
“Also recorded” adds a separate entry of the source. Read-outs that look alike come from different tables or passages of the source.

Key:
[1] = system: adhesion of neutrophils onto human umbilical vein endothelial cells (HUVECs); assay: Neutrophil adhesion assay on LPS-induced endothelial cells (static conditions); format: cell-based; details: LPS (1 μg/ml) 6 hrs; for IC50: HUVEC, read-out: Neutrophil Adhesion Inhibition IC50
Procedure: (§1) Primary endothelial cells were isolated from human umbilical cord using mild trypsinization (Kumar, S., Arya, P., Mukherjee, C., Singh, B. K., Singh, N., Parmar, V. S., Prasad, A. K., Ghosh, B. Novel Aromatic Ester from Piper longum and Its Analogues Inhibit Expression of Cell Adhesion Molecules on Endothelial Cells. Biochemistry. 2005, 44, 15944-15952). The cells were grown in M199 medium (Sigma, USA) supplemented with 15% heat inactivated fetal calf serum (Biological Industries, Israel), 2 mM L-glutamine (Sigma, USA), 100 units/ml penicillin (Sigma, USA), 100 μg/ml streptomycin (Sigma, USA), 0.25 μg/ml amphotericin B (Sigma, USA), endothelial cell growth factor (50 μg/ml) (Sigma, USA). At confluence, the cells were subcultured using 0.05% trypsin-0.01 M EDTA solution and were used between passages three to four.
Neutrophils were isolated from peripheral blood of healthy individuals (Kumar S et al, 2005). Blood was collected in heparin solution (20 U/ml) and erythrocytes were removed by sedimentation against 6% dextran solution. Plasma, rich in white blood cells, was layered over Ficoll-Hypaque solution (Sigma, USA), followed by centrifugation (300 g for 20 min, 20° C.). The top saline layer and the Ficoll-Hypaque layer were aspirated leaving neutrophils/RBC pellet. The residual red blood cells were removed by hypotonic lysis. Isolated cells were washed with PBS and resuspended in PBS containing 5 mM glucose, 1 mM CaCl2, and 1 mM MgCl2 at a final concentration of 6×10^5 cells/ml.
Neutrophil adhesion assay was performed under static conditions as described previously (Kumar S et al, 2005). Briefly, endothelial cells plated in 96-well culture plates were incubated with or without RS—Z at desired concentrations for 2 hrs, followed by induction with LPS (1 μg/ml) for 6 hrs. Endothelial monolayers were washed with PBS and neutrophils (6×10^4/well) were added over it and were allowed to adhere for 1 hr at 37° C. The non-adherent neutrophils were washed with PBS and neutrophils bound to endothelial cells were assayed by adding a substrate solution consisting of o-phenylenediamine dihydrochloride (40 mg/100 ml in citrate phosphate buffer, pH 4.5), 0.1% cetrimethyl ammonium bromide, and 3-amino-1,2,4 triazole (1 mM). The absorbance was read at 490 nm using an automated microplate reader (Model 680, Bio-Rad, USA).

[2] = system: ICAM-1 (Intercellular cell adhesion molecule-1); assay: Cell-ELISA for measurement of LPS-induced ICAM-1 expression on endothelial cells; format: cell-based; details: LPS (1 μg/ml) 16 hrs, human endothelial cells, read-out: ICAM-1 inhibition IC50
Procedure: as §1
Cell-ELISA was used for measuring the expression of ICAM-1 on surface of endothelial cells (Kumar S et al, 2005) Endothelial cells were incubated with or without the test compounds at desired concentrations for the required period, followed by treatment with LPS (1 μg/ml) (BD, USA) for 16 hrs for ICAM-1 expression. The cells were fixed with 1.0% glutaraldehyde (Sigma, USA). Non-specific binding of antibody was blocked by using skimmed milk (3.0% in PBS). Cells were incubated overnight at 4° C. with anti-ICAM-1 mAb (BD, USA), diluted in blocking buffer, the cells were further washed with PBS and incubated with peroxidase-conjugated goat anti-mouse secondary antibody (Sigma, USA). After washings, cells were exposed to the peroxidase substrate (o-phenylenediamine dihydrochloride 40 mg/100 ml in citrate phosphate buffer, pH 4.5). Reaction was stopped by the addition of 2 N sulfuric acid and absorbance at 490 nm was measured using microplate reader (Spectramax 190, Molecular Devices, USA).

[3] = system: human umbilical vein endothelial cell (HUVEC); assay: Cell viability (MTT) assay on endothelial cells; format: cell-based; details: Concentration of compounds where >95% cells are viable
Procedure: as §1
The cytotoxicity of these compounds was analyzed by colorimetric MTT (methylthiazolydiphenyl-tetrazolium bromide, Sigma, USA) assay as described (Kumar S et al, 2005). Briefly, endothelial cells were treated with DMSO alone (0.25%, as vehicle) or with different concentrations of compounds for 24 hrs. Four hrs before the end of incubation, medium was removed and 100 μl MTT (5 mg/ml in serum free medium) was added to each well. The MTT was removed after 4 hrs, cells were washed out with PBS (phosphate buffered saline, pH 7.4), and 100 μl DMSO was added to each well to dissolve water insoluble MTT-formazan crystals. Absorbance was recorded at 570 nm in an ELISA reader (Bio-Rad, Model 680, USA). All experiments were performed at least 3 times in triplicate wells.

[4] = system: acute lung Injury model; details: literature reference; cited from earlier work
[5] = system: LPS induced acute lung injury; assay: LPS aerosol induced acute lung injury model in mice (BALF cell counts, lung injury score); format: in vivo; details: for Neutrophil count in the BALF / neutrophil influx in the lungs / Lung injury score / LPS-induced lung injury: post-treatment i.p. 0.1, 1.0 and 10 mg/kg; for Neutrophil count in the BALF / neutrophil influx in the lungs: FIG. 2B; for Lung injury score / LPS-induced lung injury: FIG. 3
Procedure: BALB/c male mice 10 weeks old were randomly divided into 5 groups with 6 mice in each group.
Group 1: saline challenged/vehicle (0.25% CMC) treated
Group 2: LPS challenged/vehicle treated
Group 3: LPS challenged/RS—Z (0.1 mg/kg in 0.25% CMC) treated
Group 4: LPS challenged/RS—Z (1 mg/kg in 0.25% CMC) treated
Group 5: LPS challenged/RS—Z (10 mg/kg in 0.25% CMC) treated
Mice in Groups 2, 3, 4 and 5 were challenged with an aerosol of LPS (E. coli strain 026:B6) at a concentration of 300 μg/ml in normal saline for 30 minutes. Mice were placed in a Plexiglas chamber (20×20×10 cm^3) and exposed to an aerosol generated from a nebulizer (Omtron model, USA) with an airflow rate of 9 L/min. Group 1(Control) mice were challenged with saline alone.
Mice were treated with either vehicle or RS—Z thirty minutes after the LPS challenge. Mice in group 1 (control) and Group 2 (LPS challenged) were vehicle (0.25% CMC) treated intraperitoneally (i.p.). Mice in Group 3 were treated with RS—Z at a dose of 0.1 mg/kg body weight by i.p. injection. Mice in Group 4 were treated with RS—Z at a dose of 1.0 mg/kg body weight by i.p. injection. Group 5 were treated with RS—Z at a dose of 10 mg/kg body weight by i.p. injection.
Mice were sacrificed three hrs after the LPS challenge using an overdose of sodium pentothal (100 mg/kg, i.p.). The trachea were cannulated and 0.5 ml of PBS (phosphate buffered saline) was used for lavage at a time and this step was repeated three times. About 1.5 ml of BAL fluid was recovered per mouse. The BAL fluid was centrifuged (400×g, 4° C., 6 min) and the supernatant was kept at −70° C. until analyzed for biochemical parameters. The BAL cells were washed three times with PBS and the pellet was resuspended in 200 μl cold PBS. For total cell counts, BAL cell suspension was diluted 1:20 in PBS and cells were counted in a hemocytometer. For differential counts, BALF cell suspension smear was made on glass slides followed by Leishman's stain. The cells were identified and counted by standard methodology. At least 300 cell (all types) per slide were counted and the percentage of neutrophils was calculated.
The excised lung portions from all the groups was fixed in 10% Buffered formalin. The fixed tissue was embedded in paraffin, sectioned into 4 μm and stained with haematoxylin-eosin for observation under the light microscope. The injury was scored with a semi-quantitative grading system based on the structure changes edema, alveolar and interstitial hemorrhage and inflammatory cells sequestration (Matthay M A, Zimmerman G A, Esmon C, Bhattacharya J, Caller B, et al. (2003) Future research directions in acute lung injury: Summary of a National Heart, Lung, and Blood Institute working group. Am J Respir Crit. Care Med 167: 1027-1035). Semi-quantitative grading system was a 0-to-4 point grading system: 0=No injury, 1=25% injury in a light microscope field, 2=50% injury in a light microscope field, 3=75% injury in a light microscope field, 4= almost 100% injury in a light microscope field. Five light microscopic fields were analyzed for a particular pathological specimen to determine mice lung injury score.

[6] = reference compound, value in mM
[7] = vs. LPS aerosol/vehicle IP, listed as formula 1a

SMILES	Neutrophil Adhesion Inhibition IC50 [1]	IC50 [2]	Max. tolerable dose ([3]; 24 hrs, MTT)	Efficacious Dose [4]	other results
CCCOC(=O)CCCC(Sc1ccccn1)C(=O)OC (stereo not drawn) [AD-20, 2-(2-pyridylthio)-hexanedioic acid 1-methyl ester 6-propyl ester]	not significant	0.178 ± 0.00081 mM	0.25 mM	–	–
COC(=O)C(CCCC(=O)OC1CCCCC1)Sc1ccccn1 (stereo not drawn) [AD-21, 2-(2-pyridylthio)-hexanedioic acid 6-cyclohexyl ester 1-methyl ester]	not significant	0.117 ± 0.00092 mM	0.25 mM	–	–
CCOC(=O)CCCCCCCC(Sc1ccccn1)C(=O)OC (stereo not drawn) [AD-32, 2-(2-pyridylthio)-decanedioic acid-10-ethyl ester 1-methyl ester]	not significant	0.1 ± 0.00096 mM	0.25 mM	–	–
CCCCCOC(=O)CCCC(Sc1ccccn1)C(=O)OC (stereo not drawn) [AD—Z, 2-(2-pyridylthio)-hexanedioic acid-1-methyl ester 6-pentyl ester]	not significant	0.085 ± 0.00152 mM	0.25 mM	–	–
CC(=O)N[C@@H](CS)C(=O)O [NAC, N-acetyl cysteine, reference compound]	not significant	–	–	150 mg/kg	IC50 [2, 6]: 6.68 mM; Max. tolerable dose [3, 6]: 20 mM
CCCCOC(=O)CCSc1ccccn1 [RS-20, 3-(2-pyridylthio)propionic acid butyl ester]	–	0.079 ± 0.00073 mM	0.5 mM	–	IC50 [1]: 85 ± 0.94 µM
O=C(CCSc1ccccn1)OC1CCCCC1 [RS-21, 3-(2-pyridylthio)propionic acid cyclohexyl ester]	not significant	0.135 ± 0.00082 mM	0.25 mM	–	–
CCOC(=O)CCCCCCSc1ccccn1 [RS-32, 7-(2-pyridylthio)heptanoic acid ethyl ester]	–	0.097 ± 0.00063 mM	0.5 mM	–	IC50 [1]: 94 ± 0.92 µM
CCCCCOC(=O)CCSc1ccccn1 [RS—Z, 3-(2-pyridylthio)propionic acid pentyl ester]	–	0.05 mM	0.5 mM	–	IC50 [1]: 61 µM; Lung injury caused by bacterial polysaccharide challenge ([5]; 10 mg/kg body weight): significantly reduced; Pulmonary neutrophil infiltration ([5]; 10 mg/kg body weight intraperitoneally): significantly alleviate; Efficacious Dose ([5]; acute lung injury model, mice, i.p.): 10 mg/kg; Total cell counts in the BALF ([5]; post-treatment IP 0.1, 1, 10 mg/kg, vs. LPS aerosol/vehicle IP, FIG. 2A): dose-dependently reduced; Neutrophil count in the BALF / neutrophil influx in the lungs ([5]; vs. LPS aerosol/vehicle IP): reduction of the neutrophil influx; also recorded: dose-dependently reduced; Neutrophil count in the BALF / neutrophil influx in the lungs [5, 7]: Reduction of the neutrophil influx; Lung injury score / LPS-induced lung injury ([5]; vs. LPS aerosol/vehicle IP): attenuation of the LPS-induced lung injury; also recorded: dose-dependently reduced; Lung injury score / LPS-induced lung injury [5, 7]: Attenuation of the LPS-induced lung injury
COc1ccc(C2CNC(=O)C2)cc1OC1CCCC1 (stereo not drawn) [Rolipram]	–	–	–	5 mg/kg	–
O=C1CCC(N2C(=O)c3ccccc3C2=O)C(=O)N1 (stereo not drawn) [Thalidomide, α-N-phthalimidoglutarimide]	–	–	–	100 mg/kg	–
Cc1c(C)c2c(c(C)c1O)CCC(C)(C[C@H]1O[C@H](CO)[C@@H](O)[C@H](O)[C@H]1O)O2 (stereo partly drawn) [Water-soluble Vitamin E derivative, (α-D-glucopyranosyl)methyl-2,5,7,8-(tetramethyl)chroman-6-ol]	–	–	–	10 mg/kg	–
